Results on 1 substance are retold here after patent publication US20140369934A1, “dsRNA/DNA Hybrid Genome Replication Intermediate Of Metakaryotic Stem Cells” (MASSACHUSETTS INSTITUTE OF TECHNOLOGY, priority 2011, published 2014).

The experiment relates to dsRNA/DNA-specific antibodies. Put plainly: Blocking test of dsRNA/DNA antibody immunofluorescence staining with poly(A)-poly(dT). Type of experiment: binding. The following applies: 10 micrograms/milliliter Poly(A)-Poly(dT) mixed with antibody (1/20 final), incubated 10-15 minutes at room temperature. As for the experimental part:
The specificity of staining by antibodies was checked for by the blocking test with poly(A)-poly(dT), which was performed as follows:
Equal volumes of Poly(A)-Poly(dT) (20 ug/ml) and antibody (1/10) were mixed to give final concentrations of 10 ug/ml A.dT and 1/20 of serum (antibody). For controls, PBS was used in place of Poly(A)-Poly(dT). Samples were incubated for 10-15 minutes at room temperature.
Samples were then tested at final concentrations of 10, 2.0, 0.5 and 0.08 micrograms/ml, in each case incubating equal volumes of polynucleotide and antibody that are twice the final concentration, as above.

As to Poly(A)-Poly(dT), the “staining with dsRNA/DNA-specific antibodies after addition of blocker” value is “completely blocked”.
